Where two headings read alike, the source gives them in different places.
What was measured:
Puccinia recondita = assay: CG1 Preventative control of brown rust on wheat caused by Puccinia recondita (Puccrt P1), greenhouse; type: in vivo; settings: 75 ppm spray, wheat seedlings, inoculated next day; % diseased leaf area; untreated control 90
Procedure: The Spray Solutions were Prepared in Several Steps:
The stock solution were prepared: a mixture of acetone and/or dimethylsulfoxide and the wetting agent/emulsifier Wettol, which is based on ethoxylated alkylphenoles, in a relation (volume) solvent-emulsifier of 99 to 1 was added to the initial weight of the compound to give a total of 5 ml. Water was then added to total volume of 100 ml. This stock solution was diluted with the described solvent-emulsifier-water mixture to the given concentration.
CG1 Preventative Control of Brown Rust on Wheat Caused by Puccinia recondita (Puccrt P1)
The first two developed leaves of pot-grown wheat seedling were sprayed to run-off with an aqueous suspension, containing the concentration of active ingredient or their mixture as described below. The next day the plants were inoculated with spores of Puccinia recondita. To ensure the success the artificial inoculation, the plants were transferred to a humid chamber without light and a relative humidity of 95 to 99% and 20 to 24° C. for 24 h. Then the trial plants were cultivated for 6 days in a greenhouse chamber at 20-24° C. and a relative humidity between 65 and 70%. The extent of fungal attack on the leaves was visually assessed as % diseased leaf area.

Pyricularia oryzae = type: cell-based
[1] = comparison CM1, 7 days after inoculation
[2] = comparison CM2, 7 days after inoculation

| Structure (SMILES) | Disease (%) at 75 ppm Puccrt P1 (Puccinia recondita) | Growth (%) at 8 ppm Pyrior (Pyricularia oryzae; [1]) | Growth (%) at 8 ppm Pyrior (Pyricularia oryzae; [2]) |
| --- | --- | --- | --- |
| OC(Cc1ccc(-c2ccc(Cl)cc2)cc1Cl)(Cn1cncn1)C1(Cl)CC1 (stereo not drawn) [I-3, 1-[2-chloro-4-(4-chlorophenyl)phenyl]-2-(1-chlorocyclopropyl)-3-(1,2,4-triazol-1-yl)propan-2-ol] | 20% | – | – |
| OC(Cc1ccccc1Cl)(Cn1ncnc1S)C1(Cl)CC1 (stereo not drawn) [drawing 129, reference compound] | – | 41% | – |
| OC(Cc1ccc(Oc2ccc(Cl)cc2)cc1Cl)(Cn1ncnc1S)C1(Cl)CC1 (stereo not drawn) [I-5] | – | 0% | 0% |
| OC(Cc1ccc(-c2ccc(Cl)cc2)cc1Cl)(Cn1ncnc1S)C1(Cl)CC1 (stereo not drawn) [I-6] | – | 0% | – |
| OC(Cc1ccccc1Cl)(Cn1cncn1)C1(Cl)CC1 (stereo not drawn) [reference compound] | 50% | – | – |
| OC(Cc1ccc(Oc2ccc(Cl)cc2)cc1Cl)(Cn1cncn1)C1(Cl)CC1 (stereo not drawn) [I-4] | 20% | – | – |
| OC(Cc1ccccc1Cl)(Cn1ncnc1S)C1(Cl)CC1 (stereo not drawn) [drawing 135, reference compound] | – | – | 41% |
| OC(Cc1ccc(Oc2ccc(Cl)cc2)cc1Cl)(Cn1cncn1)C1CC1 (stereo not drawn) [I-7, 1-[2-Chloro-4-(4-chlorophenoxyl)phenyl]-2-cyclopropyl-3-(1,2,4-triazol-1-yl)propan-2-ol] | – | – | 0% |

Source: US20150351401A1 (priority 2012, published 2015)
